Square brackets hold non-standard residues; d marks the D form. Peptide text beside a SMILES is read from it.
Columns and labels:
U937 cells = test: CXCL12 mediated cell migration, U937 cells; assay type: cell-based, human; conditions: peptides at 10 μM (also stated 1 μM), 100 nM CXCL12, 4 hours
Experimental: Peptides were initially prepared as 1 mM stock in H2O and tested at a final concentration of 1 μM. […] U937 cells were resuspended in serum free media containing 0.5% bovine serum albumin (RPMI+GlutaMax (Gibco/Thermo Fisher Scientific, Gaithersburg, Md.)) at density of 5×10^6 cells/ml. […] Following the 4 hour incubation period the filter inserts were carefully removed and the migration of cells across the filter into the bottom chamber (receiver wells) was determined by measuring ATP levels using Cell TiterGlo 2.0, according to manufacturer's instructions (Promega, Madison, Wis.); luminescence measured using a Cytation 3 plate reader (BioTek, Winooski, Vt.).

Rat H-4-II-E Cells [1] = test: Cell proliferation, BrdU incorporation; assay type: cell-based; conditions: peptide 10 μM, 18-20 hours, relative to 0.1% DMSO control
Experimental: The effect of the peptides on cell proliferation can be assessed using an assay of BrdU incorporation in cultured cells. Peptides were initially prepared as 10 mM stock in DMSO and tested at a final concentration of 10 μM (0.1% DMSO). BrdU Cell Proliferation Assay kit was purchased from Cell Signaling Technology. H-4-II-E rat liver hepatoma cell line was purchased from American Type Culture Collection (Manassas, Va.). H-4-II-E cells were grown in DMEM supplemented with 10% FBS with 100 IU/ml penicillin and 100 μg/ml streptomycin. Cultures were maintained at 37° C. in a humidified atmosphere of 5% CO2/95% air. H-4-II-E cells were seeded at 20,000 cells per well on 96-well plates. The next day cells were incubated with test peptides at 10 μM in 0.1% DMSO and maintained at 37° C. in a humidified atmosphere of 5% CO2/95% air for 18-20 hours. Cell proliferation was determined using a BrdU Cell Proliferation Assay kit (Cell Signaling Technology) according to the manufacturer's instructions. Absorption for each sample well on the plate was measured using a Cytation 3 plate reader at 450 nm (BioTek, Winooski, Vt.). Activity was calculated relative to 0.1% DMSO untreated control.

Rat H-4-II-E Cells [2] = test: TBHP-induced reactive oxygen species (DCFDA); assay type: cell-based; conditions: peptide 10 μM 18-20 hours, then TBHP 100 μM 1 hour; relative to TBHP control
Experimental: The protective or synergistic effect of the peptides on cellular levels of reactive oxygen species (ROS) induced by oxidative stress can be assessed using an assay of ROS in cultured cells exposed to a suitable oxidative stress. Peptides were initially prepared as 10 mM stock in DMSO and tested at a final concentration of 10 μM (0.1% DMSO). […] TBHP was used at final concentration of […]. Sulforaphane was used at a final concentration of 10 uM as a protective antioxidant control against TBHP induced ROS production. DCFDA Cellular ROS Detection Assay kit was purchased from […]. H-4-II-E rat liver hepatoma cell line was purchased from American Type Culture Collection (Manassas, Va.). H-4-II-E cells were grown in DMEM supplemented with 10% FBS with 100 IU/ml penicillin and 100 μg/ml streptomycin. Cultures were maintained at 37° C. in a humidified atmosphere of 5% CO2/95% air. H-4-II-E cells were seeded at 15,000-20,000 cells per well on 96-well plates. The next day cells were incubated with test peptides at 10 μM in 0.1% DMSO or sulforaphane at 10 uM and maintained at 37° C. in a humidified atmosphere of 5% CO2/95% air for 18-20 hours. After 18-20 hours of incubation the cells were loaded with DCFDA for 45 min. TBHP at 100 μM was then added to the appropriate wells for 1 hour. ROS activity was determined using a DCFDA Cellular ROS Detection Assay kit (Abcam) according to the manufacturer's instructions. Fluorescence in each sample well on the plate was measured using a Cytation 3 plate reader at Ex/Em=485/535 nm (BioTek, Winooski, Vt.). Activity was calculated relative to TBHP control. […] Activity was calculated relative to THBP treated control.

3T3-L1 Mouse Adipocytes = test: Free fatty acid levels in cultured mouse adipocytes; assay type: cell-based; conditions: peptide 10 μM, 20-22 hours then 3 hours with 1 nM isoproterenol; relative to isoproterenol treated cells
Experimental: The effect of the peptides on fatty acid metabolism can be assessed using an assay of free fatty acid levels in cultured cells such as mouse adipocytes. Peptides were initially prepared as 10 mM stock in DMSO and used at a final concentration of 10 μM (0.1% DMSO). […] Mouse 3T3-L1 cells purchased from ZenBio were seeded at 3,000 cells per well in 96-well plates in Pre-adipocyte Medium (Zen-Bio) and grown to confluence at 37° C. in a humidified atmosphere of 5% CO2/95% air. Two days after confluence, cells were placed in Adipocyte Differentiation Medium (Zen-Bio) and cultured for three additional days at 37° C. in a humidified atmosphere of 5% CO2/95% air. The culture media was then replaced with Adipocyte Maintenance Medium (Zen-Bio) and the cells maintained for an additional 9-12 days at 37° C. in a humidified atmosphere of 5% CO2/95% air with partial medium replacement every other day. Following 12-15 days of differentiation, test peptides were added at a final concentration of 10 μM in 0.1% DMSO and incubated for 20-22 hours in Adipocyte Maintenance Medium at 37° C. in a humidified atmosphere of 5% CO2/95% air. After 20-22 hours, 1 nM isoproterenol was added to all wells except untreated controls and test peptides were replenished. Insulin at 100 nM was added to control wells. Cells were incubated for 3 hours in Assay Buffer (Zen-Bio) at 37° C. in a humidified atmosphere of 5% CO2/95% air. Free fatty acid concentrations in the media were determined using a Free Fatty Acid Assay kit (Zen-Bio) according to the manufacturer's instructions using a Cytation 3 plate reader at 540 nm (BioTek, Winooski, Vt.). Absorbance values were corrected for untreated background and expressed relative to isoproterenol treated cells. Treatment with isoproterenol (1 nM) alone was used as the free fatty acid level stimulatory control. The relative standard deviation of the isoproterenol control was <10%. […] Free fatty acid levels for insulin (100 nM) treatment were <5% of the isoproterenol control value.

human CXCR4 = human CXCR4 (Homo sapiens, UniProt P61073); test: IC50 for CXCR4/CXCL12 ligand binding, HTRF format (Example 24); set-up: host or cells: HEK293 (Tag-lite CXCR4 cells, frozen aliquots, transient expression)
Experimental: Peptides were initially prepared as 1 mM stock in H2O. […] Following the manufacture's protocol, a frozen aliquot of Tag-lite CXCR4 cells was thawed and immediately seeded onto 384-well plates in TLB. […] The plates were covered in aluminum foil and left at room temperature for 3 hours. Following the 3 hour incubation period, the plates were removed from the incubator and fluorescence measured using a Cytation 1 plate reader using a HTRF filter cube ([…]; BioTek; Winooski, Vt.).

Chain of human CXCR4 (P61073 whole entry): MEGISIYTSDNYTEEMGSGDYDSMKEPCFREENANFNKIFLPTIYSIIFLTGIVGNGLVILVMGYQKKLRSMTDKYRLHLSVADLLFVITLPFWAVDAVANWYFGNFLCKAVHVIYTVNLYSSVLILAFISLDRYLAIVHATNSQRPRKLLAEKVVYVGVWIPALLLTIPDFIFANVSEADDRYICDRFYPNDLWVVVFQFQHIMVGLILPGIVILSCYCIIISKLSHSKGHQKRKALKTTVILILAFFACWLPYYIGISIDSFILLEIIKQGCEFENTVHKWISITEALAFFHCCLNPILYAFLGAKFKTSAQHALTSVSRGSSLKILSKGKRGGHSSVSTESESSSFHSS

Row | Structure (SMILES) | Percent Inhibition of CXCL12 Mediated Migration (U937 cells) [%] | BrdU Incorporation, Percent of Control (Rat H-4-II-E Cells [1]) [%] | TBHP-Induced ROS, Percent of Control (Rat H-4-II-E Cells [2]) [%] | Free Fatty Acid Levels, MEAN % ISO (3T3-L1 Mouse Adipocytes) [%] | IC50 (human CXCR4) [nM]
1 | CSCC[C@H](N)C(=O)N[C@@H](CC(C)C)C(=O)N[C@@H](CCCNC(=N)N)C(=O)N[C@@H](CCCNC(=N)N)C(=O)N[C@@H](Cc1ccc(O)cc1)C(=O)N[C@@H](Cc1c[nH]cn1)C(=O)N[C@@H](Cc1c[nH]cn1)C(=O)N[C@@H](CO)C(=O)N[C@H](C(=O)N[C@@H](CCCNC(=N)N)C(=O)N[C@@H](CO)C(=O)N[C@@H](CO)C(=O)N[C@@H](CC(C)C)C(=O)N[C@@H](CCCNC(=N)N)C(=O)N1CCC[C@H]1C(=O)N[C@@H](Cc1ccc(O)cc1)C(=O)N[C@H](C(=O)N[C@@H](CCCCN)C(=O)O)[C@@H](C)O)C(C)C [compound 2] (H-MLRRYHHSVRSSLRPYTK-OH; N-terminus and C-terminus assumed) | 58 | 123.6 | 90.9 | 83.2 | –
2 | CC(C)C[C@H](NC(=O)[C@H](CO)NC(=O)[C@H](CO)NC(=O)[C@H](CCCNC(=N)N)NC(=O)[C@@H](C)NC(=O)[C@H](CO)NC(=O)[C@H](Cc1c[nH]cn1)NC(=O)[C@H](Cc1c[nH]cn1)NC(=O)[C@H](Cc1ccc(O)cc1)NC(=O)[C@H](CCCNC(=N)N)NC(=O)[C@H](CCC(=O)O)NC(=O)[C@@H](N)CC(C)C)C(=O)N[C@@H](CCCNC(=N)N)C(=O)N1CCC[C@H]1C(=O)N[C@@H](Cc1ccc(O)cc1)C(=O)N[C@H](C(=O)O)[C@@H](C)O [compound 5] (H-LERYHHS[dA]RSSLRPYT-OH; N-terminus and C-terminus assumed) | 86 | 131.1 | 99.2 | 86.9 | 33
3 | CC(C)C[C@H](NC(=O)[C@H](CO)NC(=O)[C@H](CO)NC(=O)[C@H](CCCNC(=N)N)NC(=O)[C@@H](NC(=O)[C@H](CO)NC(=O)[C@H](Cc1c[nH]cn1)NC(=O)[C@H](Cc1c[nH]cn1)NC(=O)[C@H](Cc1ccc(O)cc1)NC(=O)[C@H](CCCNC(=N)N)NC(=O)[C@H](CCCNC(=N)N)NC(=O)[C@@H](N)CC(C)C)C(C)C)C(=O)N[C@@H](CCCNC(=N)N)C(=O)N1CCC[C@H]1C(=O)N[C@@H](Cc1ccc(O)cc1)C(=O)N[C@H](C(=O)N[C@@H](CCCCN)C(=O)O)[C@@H](C)O [compound 3] (H-LRRYHHSVRSSLRPYTK-OH; N-terminus and C-terminus assumed) | 101 | 130.3 | 95.5 | 82.0 | –
4 | CC(C)C[C@H](NC(=O)[C@H](CO)NC(=O)[C@H](CO)NC(=O)[C@H](CCCNC(=N)N)NC(=O)[C@@H](NC(=O)[C@H](CO)NC(=O)[C@H](Cc1c[nH]cn1)NC(=O)[C@H](Cc1c[nH]cn1)NC(=O)[C@H](Cc1ccc(O)cc1)NC(=O)[C@H](CCCNC(=N)N)NC(=O)[C@H](CCC(=O)O)NC(=O)[C@@H](N)CC(C)C)C(C)C)C(=O)N[C@@H](CCCNC(=N)N)C(=O)N1CCC[C@H]1C(=O)N[C@@H](Cc1ccc(O)cc1)C(=O)N[C@H](C(=O)N[C@@H](CCCCN)C(=O)O)[C@@H](C)O [compound 4] (H-LERYHHSVRSSLRPYTK-OH; N-terminus and C-terminus assumed) | 98 | 114.4 | 95.8 | 92.3 | 6
